In patent US20160340683A1, “NANOCARRIER BASED PLANT TRANSFECTION AND TRANSDUCTION” (HER MAJESTY THE QUEEN IN RIGHT OF CANADA AS REPRESENTED BY …, priority 2007, published 2016):
fluorescein = fluorescein label at the N-terminus

What was measured:
[1] = test system: isolated microspores of Triticale (variety Sunray); assay: CPP delivery of GUS enzyme into isolated microspores, GUS staining; assay type: cell-based; conditions: GUS enzyme cargo:CPP 1:4, 1 hour at 37° C., three repeats
Description: Triticale line Sunray grown in a growth cabinet with a photoperiod of 19 h day (intensity 300 μE m-2 s-1), and temperature 18-15° C. (day-night) with a relative humidity at about 70% was used as the donor plant material. The plants were fertilized every 2 weeks (20-20-20, 200 ppm) and treated with 2.5 ml I-1 Tilt™ (propiconazole, Syngenta) during the tillering stage and Intercept™ (0.004 g per litre of soil, Imidacloprid, Bayer) once sufficient root development was established. The first 10 tillers from each pot were harvested when the spike was at 3-4 cm, depending on the crop, from emergence from the boot. These tillers (to be used for microspore isolation) were subjected to pre-treatment in a refrigerator (4° C.) for 21 days with their bases in distilled water and their heads wrapped in aluminum foil. After 21±3 days of pre-treatment, the spikes were excised from their tillers and after an evaluation of their general appearance, only the most homogenous spikes were used. After confirming microspores at mid to bi-nucleate stage from a median floret, using acetocarmine staining, the tillers were processed for extraction.
Awns were removed with scissors in a laminar flow hood. Eight-fourteen spikes were used for microspore isolation. They were sterilized with 10% bleach (5.25% sodium hypochlorite) for 3 min followed by rinsing in sterile double distilled water four times of 1 min each with constant agitation. Outer glumes were removed and florets from all the spikes were aseptically dissected and transferred to a sterile and refrigerated 110 ml Warring blender cup (VWR international, #58983-093) containing 50 ml filter sterilized extraction buffer at 4° C. Florets were then blended twice for 7 s at low speed (18000 rpm). The slurry was then poured through a 1 mm sieve followed by pouring through a 100 μm sterile mesh (VWR International, #CA21008-950) into two 50 ml centrifuge tubes (25 ml each). The blender cup was rinsed with 50 ml extraction buffer at 4° C. and poured through the 100 μm mesh and was added to the first aliquot in the 50 ml tubes. The cells were then pelleted by centrifugation (100×g for 5 min at 4° C.) using a swinging bucket rotor. After pouring off the supernatant, the microspore-containing pellets were pooled together in one 50 ml tube and re-suspended in 50 ml cold extraction buffer. The cells were pelleted again with centrifugation (100×g for 5 min at 4° C.), the supernatant poured off and the pellet was transferred to a 15 ml tube. After re-suspending the pellet in CIMC Wash Buffer supplemented with 10 microM SS-31 peptide, it was subjected to wash and centrifugation using the above conditions. The supernatant was removed and the pellet was re-suspended in CIMC Wash buffer and centrifugation was repeated as above. The pellet was then suspended in 7 mL of 20% maltose at 4° C., layered with 1 mL of CIMC wash buffer and was centrifuged at 100 g for 13 min at 4° C. A band of microspores formed at the interface was collected in a new 15 ml tube. The cells were diluted with CIMC wash solution and subsequently collected by centrifugation at 150 g for 5 min. The supernatant was removed and the cells were finally suspended in a total volume of 1.4 ml of appropriate solution. After counting the cells using a haemocytometer, aliquots of 100,000 cells in 200 μl volume were prepared in 2 ml microcentrifuge tubes to be ready for transduction.
Peptide stock solutions were made in water at 1 μg/μl concentration. CPP (Nanocarrier) and GUS enzyme (cargo) were first prepared in separate microcentrifuge tubes. A total of 4 μg of CPP was prepared in sterile water to a final volume of 100 μl. Similarly, 1 μg of GUS enzyme was added to sterile water to a final volume of 100 μl. The contents of the two tubes were mixed together giving a ratio of 1:4 protein cargo:CPP. The complex was incubated for 30 min at room temperature (RT). Chariot (PAP1) protein delivering reagent was used as a positive control in the experiments. […]

[2] = test system: scutellum and somatic embryos of triticale; assay: CPP delivery of mCherry protein, confocal microscopy; assay type: cell-based; conditions: mCherry 1 μM with 60 μM CPP, overnight at RT
Text: The fluorescent mCherry protein was chosen as the protein, while scutellum (dissected out of immature caryopses) and isolated microspore culture-derived somatic embryos of triticale were used as choice of tissue. Both scutellum and somatic embryos are amenable to tissue culture and can undergo somatic embryogenesis to regenerate green plants providing a direct means to obtain modified plants following a biocompatible CPP induced transduction. Scutellum is representative of a diploid tissue while microspore culture derived somatic embryos is a haploid tissue.
The protein:CPP complex was prepared by individually mixing mCherry protein (1 μM) with 60 μM of the 3 CPPs. Both scutellum and somatic embryos of triticale were treated with these different complex formulations overnight at RT. […] The red fluorescent signal was detected by confocal microscopy within both scutellum and somatic embryo cells.

[3] = test system: immature embryos; assay: Translocation of fluoresceinated CPPs in zygotic embryos, fluorescence microscopy; assay type: cell-based, Triticale cv AC Alta; conditions: for Fluorescence under fluorescence microscope, overall comparison: mature and immature embryos, with or without permeabilization
Description: The embryos were isolated from spikes two weeks post-anthesis (scutellum diameter 1-2 mm). The immature seeds were surface sterilized with 70% ethanol for 30 s followed by treatment with 10% hypochlorite (Chlorex) and a drop of Tween 20, 3 min. Four washings of 1 min each were given with sterile water. The embryos were hand dissected under sterile conditions. Isolated embryos were placed on GEM medium (Eudes et al, 2003) for 24 h in dark at room temperature prior to CPP translocation studies.
Isolated and sterilized embryos (20-25) were imbibed in total volume of 420 μl permeabilization buffer (15 mM sodium chloride, 1.5 mM sodium citrate, pH 7.1) containing cellular permeabilization agent toluene/ethanol (1:4) in 1:20 ratio with permeabilization buffer. To this 2.1 μl of 1 mM fluoresceinated CPP was added to give a final concentration of 5 μM. In negative controls, the embryos were treated with FITC-dextran sulphate or M-Tat. The embryos were incubated in the permeabilization mix for 1 h in dark at room temperature, followed by two washings with permeabilization buffer. The embryos were then treated with trypsin:EDTA (0.25% solution, Sigma-Aldrich) in 1:2 ratio with permeabilization buffer for 5 min at room temperature to remove free peptide molecules. Embryos were washed two times with permeabilization buffer and subjected either for fluorescence microscopy or spectrofluorimetric analysis.

Substance | Average Transduction Efficiency [1] [%] | other results
RRRRRRRRHLRR [CPP34] | 47.13 | Delivery of mCherry inside the cells, red fluorescent signal [2]: able to interact noncovalently with mCherry, subsequently delivering it inside the cells
RRRRARGKRCWLRRRRRR [CPP49] | 11.89 | –
KRKKSGKKKKIGRFLSRLVGAEKRR [CPP9] | 5.79 | –
RRRGRRRRRRRRQRQQRRQEGNRRR [CPP5] | 5.88 | –
RRRRKKRGRKGRDKEERRDR [CPP42] | 1.20 | –
RRFRRTAPRAAGEARGLRRLRKSR [CPP57] | 5.77 | –
RSSRRAAEGRRRRRRRREKR [CPP36] | 0 | –
RRRRRRRRHGRR [CPP24] | 18.77 | –
RRRRKKRGRKGRDKEERRDRRRRRRR [CPP11] | 16.61 | –
RRRKGSSYRRRRRRRRR [CPP20] | 0 | –
RRSLLSRRIRRRLRRRPKPRRRRRRR [CPP46] | 9.31 | –
RRRQERRER [CPP63] | 0 | –
RRHRQQKPTTTRRRRR [CPP65] | 0 | –
RRRRRRRGRDARRR [CPP8] | 2.78 | –
RRRVGRRAPRRRRR [CPP51] | 0 | –
KRRRSWRRRRSRTRQRRRRSRRRRRRRR [CPP41] | 21.17 | –
Dextran Sulphate | – | Uptake seen by fluorescence microscopy (FIG. 1) ([3]; in the presence of cellular permeabilizing agent (toluene)): some fluorescence; Fluorescence under fluorescence microscope, overall comparison [3]: none or very weak fluorescence; Uptake seen by fluorescence microscopy (FIG. 1) ([3]; without cellular permeabilizing agent): did not demonstrate any significant uptake
KKKGKGKKKKQGK [CPP4] | 0 | –
RRRRKKRGRKGRDKEERRDRRRRRRR [CPP40] | 11.74 | –
RRARRRTRRGGGEAGRRQERRRRRRRR [CPP31] | 0 | –
MALERPWKRRRRRRR [CPP47] | 0 | –
MDERRRRRRRLTATRKVAAARRRRKRR [CPP54] | 6.21 | –
RRRIAGSALVGAPPQARRRRRRR [CPP52] | 0 | –

Substance | Average Transduction Efficiency [1] [%] | other results
RRRRRITRVRRRRRRR [CPP39] | 13.15 | –
RARRRSTARRRKRRTPTRSGR [CPP32] | 1.26 | –
RRRGRRRRRRRRQRQQRR [CPP6] | 15.07 | –
RRRRRRRRRRVRFDSRR [CPP7] | 16.63 | –
RRRRWRHRCATKTAATTLRRRRRRRRGRR [CPP29] | 22.25 | –
RRDGVPRRRRRRRHMGRQR [CPP27] | 2.06 | –
RRSGRRQRRRRRRRRKR [CPP66] | 23.38 | –
RRRRRRREKLAEATRGGGEKR [CPP35] | 0 | –
KEKKKERRGVRDKERDK [CPP53] | 0 | –
RPLPLPLPLPRGPRRRRRRR [CPP30] | 0 | –
RRIRRRLRRRPKPRRRRRRR [CPP17] | 46.54 | Delivery of mCherry inside the cells, red fluorescent signal [2]: able to interact noncovalently with mCherry, subsequently delivering it inside the cells
KRKPKGGDAAEGSEKRKPKKKK [CPP16] | 0 | –
RRKNDKPKTGGEKKSTKDAPESSKKKNRK [CPP61] | 0 | –
RKKKGKRKEERER [CPP55] | 0 | –
RSGRRDRRRKKGSAR [CPP59] | 0 | –
RRPHSRHRRRRRRR [CPP10] | 0 | –
RKRKEENTGRRRRRRRERKRR [CPP22] | 1.94 | –
KTAATTLRRRRRRRRGRR [CPP28] | 5.61 | –
RRRRRRRRRRKRGGRR [CPP14] | 0 | –
RRLRCRREGKEKR [CPP60] | 0 | –
RRRPRPARLRHRLHRPINLKFERK [CPP15] | 9.23 | –
RAGVDGRGRRRRRRRR [CPP50] | 1.31 | –
MRRRRRRRRR [CPP48] | 1.09 | –

Substance | Average Transduction Efficiency [1] [%] | other results
KAKKNRSHIGKLKMTKTSGRKRSR [CPP21] | 0 | –
RAWYRFRHLVRGKWRERLRRKFK [CPP62] | 9.78 | –
RRLTTGLSFYSKPYRRSRGPRHRTEKRKRIR [CPP56] | 5.47 | –
RRWRRRRSRRRRRRRRR [CPP18] | 0 | –
RRRRRRRAGERRAREDMGRRKFR [CPP19] | 0 | –
RRRRCTRRRTRSRRRPRR [CPP3] | 57.63 | Delivery of mCherry inside the cells, red fluorescent signal [2]: able to interact noncovalently with mCherry, subsequently delivering it inside the cells
RCRRRRRRRETTSR [CPP67] | 0 | –
RKQPGRKPGVRTARPKRSKKSQLKK [CPP58] | 0 | –
RRRRRRRRHEQRRRRRKRGRGR [CPP2] | 18.7 | –
RRRGIKPNAKRRRRRRRR [CPP23] | 0 | –
RKRKRGKGIGSGRGRGRGR [CPP43] | 0 | –
RKEKKRIKQRKAFIMAEKKKRK [CPP13] | 0 | –
RTSKRRVRRRRRRR [CPP38] | 0 | –
KGHRFRSKFRHYRFRFR [CPP45] | 0 | –
KKKKKKKRPTALTPTPSLLRRRRRRR [CPP26] | 0 | –
RLRRLLLPLRRRRRLRQRRR [CPP25] | 8.7 | –
RLKRRRRRRRKVSRR [CPP33] | 15.67 | –
FI-LLIILRRRIRKQAHAHSK-amide (fluorescein-LLIILRRRIRKQAHAHSK-NH2) [pVEC] | – | Fluorescence under fluorescence microscope, overall comparison [3]: least uptake
RKRKRGKGIGSGRGRGRGRASGSEKGRGSGKGKAK [CPP44] | 11.27 | –
RVRSSRRAAEGRRRRRRREKR [CPP37] | 1.94 | –
KSKANRHRHHRRHRQQKPTTTRRRRR [CPP64] | 5.40 | –
RRSKRDVRGRQRRRRRRRLFPRR [CPP1] | 21.07 | –
RRGWRWRSAPRGGSRRRRRRRR [CPP12] | 5.25 | –
